Assay [1] deals with Tyrosine-protein kinase Fes/Fps (Homo sapiens) (UniProt P07332). The experiment in a line: Selectivity interaction (Kinase panel (Z-LYTE Assay)) EUB0001632a FES. To be noted: at 10 µM.
For assay [2], the target named is Phosphatidylinositol 4-phosphate 3-kinase C2 domain-containing subunit beta (Homo sapiens) (UniProt O00750). Description: Selectivity interaction (Adapta Assay) EUB0001632a PIK3C2B. As to conditions: at 10 µM.
Assay [3] deals with T1, Protein kinase C iota type (Homo sapiens) (UniProt P41743).
T1 sequence (whole entry): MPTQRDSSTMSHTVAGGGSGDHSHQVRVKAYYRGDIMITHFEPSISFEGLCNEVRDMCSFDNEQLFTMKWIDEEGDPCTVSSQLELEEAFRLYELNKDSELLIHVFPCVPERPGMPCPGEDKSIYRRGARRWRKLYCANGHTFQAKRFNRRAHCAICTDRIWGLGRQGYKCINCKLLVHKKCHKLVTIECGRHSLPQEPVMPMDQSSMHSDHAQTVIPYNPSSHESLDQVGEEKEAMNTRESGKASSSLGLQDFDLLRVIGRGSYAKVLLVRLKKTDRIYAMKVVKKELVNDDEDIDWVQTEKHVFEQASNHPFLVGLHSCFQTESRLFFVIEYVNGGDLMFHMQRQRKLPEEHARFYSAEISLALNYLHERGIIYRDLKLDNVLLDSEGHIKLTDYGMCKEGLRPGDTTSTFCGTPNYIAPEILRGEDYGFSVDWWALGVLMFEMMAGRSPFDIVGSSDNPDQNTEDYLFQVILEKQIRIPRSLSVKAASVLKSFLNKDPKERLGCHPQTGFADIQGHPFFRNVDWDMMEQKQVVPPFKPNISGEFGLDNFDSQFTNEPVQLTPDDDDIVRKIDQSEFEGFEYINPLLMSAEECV
The experiment in a line: Selectivity interaction (Kinase panel (Z-LYTE Assay)) EUB0001632a PRKCI. To be noted: at 10 µM.

In assay [4] the target is Microtubule-associated serine/threonine-protein kinase 3 (Homo sapiens) (UniProt O60307). The experiment in a line: Selectivity interaction (Kinase panel (KiNativ target engagement assay in Jurkat cells)) EUB0001635a MAST3. The class given is cell-based. To be noted: Selectivity number of off-targets 0.0, Selectivity number of targets 233.0, Source Knowledge https://www.sciencedirect.com/science/article/pii/S2451945619300674?via%3Dihub, at 1 µM.

The target in assay [5] is Serine/threonine-protein kinase pim-2 (Homo sapiens, UniProt Q9P1W9). Description: Selectivity interaction (KinomeScan (DiscoverX)) EUB0000666a PIM2. To be noted: at 10 µM.
Assay [6] concerns the target Citron Rho-interacting kinase (Homo sapiens) (UniProt O14578). Description: Selectivity interaction (KinomeScan (DiscoverX)) EUB0000666a CIT. As to conditions: at 10 µM.
Assay [7] concerns the target T2, Serine/threonine-protein kinase STK11 (Homo sapiens) (UniProt Q15831).
T2 sequence (whole entry): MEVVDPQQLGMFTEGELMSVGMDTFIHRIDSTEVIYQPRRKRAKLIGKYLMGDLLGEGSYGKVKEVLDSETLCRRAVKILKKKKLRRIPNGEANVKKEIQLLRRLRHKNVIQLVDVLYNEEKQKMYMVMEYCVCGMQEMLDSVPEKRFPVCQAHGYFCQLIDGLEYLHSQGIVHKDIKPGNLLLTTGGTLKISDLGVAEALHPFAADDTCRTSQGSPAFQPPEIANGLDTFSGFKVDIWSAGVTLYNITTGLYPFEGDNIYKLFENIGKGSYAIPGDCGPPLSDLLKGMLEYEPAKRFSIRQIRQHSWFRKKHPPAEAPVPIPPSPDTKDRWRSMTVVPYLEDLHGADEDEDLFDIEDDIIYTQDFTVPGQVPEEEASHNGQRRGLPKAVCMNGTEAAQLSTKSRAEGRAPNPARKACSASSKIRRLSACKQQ
Description: Selectivity interaction (KinomeScan (DiscoverX)) EUB0000655a STK11. As to conditions: at 10 µM.

Assay [8] deals with Transient receptor potential cation channel subfamily M member 6 (Homo sapiens) (UniProt Q9BX84). Description: Selectivity interaction (KinomeScan (DiscoverX)) EUB0000655a TRPM6. As to conditions: at 10 µM.
Assay [9] deals with Serine/threonine-protein kinase WNK1 (Homo sapiens) (UniProt Q9H4A3). Description: Selectivity interaction (KinomeScan (DiscoverX)) EUB0001079a WNK1. To be noted: at 1 µM.
In assay [10] the target is Mitogen-activated protein kinase 14 (Homo sapiens, UniProt Q16539). As to conditions: at 10 µM.
The target of assay [11] is Proto-oncogene tyrosine-protein kinase receptor Ret (Homo sapiens, UniProt P07949).
The target in assay [12] is Homeodomain-interacting protein kinase 3 (Homo sapiens, UniProt Q9H422). Description: Selectivity interaction (ProQinase) EUB0000171b HIPK3.
Assay [13] has as its target Activated CDC42 kinase 1 (Homo sapiens, UniProt Q07912). Description: Selectivity interaction (ProQinase) EUB0000171b TNK2.
Assay [14] has as its target T3, Hormonally up-regulated neu tumor-associated kinase (Homo sapiens) (UniProt P57058).
T3 sequence (whole entry): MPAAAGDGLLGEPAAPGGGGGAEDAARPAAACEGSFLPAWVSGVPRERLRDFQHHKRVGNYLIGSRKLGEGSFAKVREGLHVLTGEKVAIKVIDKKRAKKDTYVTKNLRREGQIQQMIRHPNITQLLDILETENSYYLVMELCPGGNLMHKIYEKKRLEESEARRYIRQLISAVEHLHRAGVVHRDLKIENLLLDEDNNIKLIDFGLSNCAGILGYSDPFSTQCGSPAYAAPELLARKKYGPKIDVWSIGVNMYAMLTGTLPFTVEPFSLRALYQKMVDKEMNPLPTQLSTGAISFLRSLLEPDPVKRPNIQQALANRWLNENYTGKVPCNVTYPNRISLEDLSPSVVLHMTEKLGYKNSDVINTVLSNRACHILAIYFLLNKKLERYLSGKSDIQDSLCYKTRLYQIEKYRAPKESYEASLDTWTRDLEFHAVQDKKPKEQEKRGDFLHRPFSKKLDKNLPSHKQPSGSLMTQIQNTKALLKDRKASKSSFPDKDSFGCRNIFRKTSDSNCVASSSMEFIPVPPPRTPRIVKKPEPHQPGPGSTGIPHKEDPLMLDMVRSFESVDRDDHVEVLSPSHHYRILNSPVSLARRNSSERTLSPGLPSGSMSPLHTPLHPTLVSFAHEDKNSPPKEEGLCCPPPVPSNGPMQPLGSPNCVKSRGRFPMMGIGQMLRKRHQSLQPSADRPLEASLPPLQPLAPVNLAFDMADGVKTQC
Description: Selectivity interaction (KinomeScan (DiscoverX)) EUB0000045b HUNK.

A short description of assay [15]: Selectivity interaction (KinomeScan (DiscoverX)) EUB0000045b CDK2H. To be noted: at 1 µM.
In assay [16] the target is Vascular endothelial growth factor receptor 2 (Homo sapiens, UniProt P35968). The experiment in a line: Selectivity interaction (KinomeScan (DiscoverX)) EUB0000618a KDR. To be noted: at 10 µM.
Assay [17] concerns the target Serine/threonine-protein kinase Chk2 (Homo sapiens) (UniProt O96017). The experiment in a line: Selectivity interaction (KinomeScan (DiscoverX)) EUB0000595a CHEK2. To be noted: at 10 µM.

Sequence of Homeodomain-interacting protein kinase 3 (Q9H422 whole entry, looked up): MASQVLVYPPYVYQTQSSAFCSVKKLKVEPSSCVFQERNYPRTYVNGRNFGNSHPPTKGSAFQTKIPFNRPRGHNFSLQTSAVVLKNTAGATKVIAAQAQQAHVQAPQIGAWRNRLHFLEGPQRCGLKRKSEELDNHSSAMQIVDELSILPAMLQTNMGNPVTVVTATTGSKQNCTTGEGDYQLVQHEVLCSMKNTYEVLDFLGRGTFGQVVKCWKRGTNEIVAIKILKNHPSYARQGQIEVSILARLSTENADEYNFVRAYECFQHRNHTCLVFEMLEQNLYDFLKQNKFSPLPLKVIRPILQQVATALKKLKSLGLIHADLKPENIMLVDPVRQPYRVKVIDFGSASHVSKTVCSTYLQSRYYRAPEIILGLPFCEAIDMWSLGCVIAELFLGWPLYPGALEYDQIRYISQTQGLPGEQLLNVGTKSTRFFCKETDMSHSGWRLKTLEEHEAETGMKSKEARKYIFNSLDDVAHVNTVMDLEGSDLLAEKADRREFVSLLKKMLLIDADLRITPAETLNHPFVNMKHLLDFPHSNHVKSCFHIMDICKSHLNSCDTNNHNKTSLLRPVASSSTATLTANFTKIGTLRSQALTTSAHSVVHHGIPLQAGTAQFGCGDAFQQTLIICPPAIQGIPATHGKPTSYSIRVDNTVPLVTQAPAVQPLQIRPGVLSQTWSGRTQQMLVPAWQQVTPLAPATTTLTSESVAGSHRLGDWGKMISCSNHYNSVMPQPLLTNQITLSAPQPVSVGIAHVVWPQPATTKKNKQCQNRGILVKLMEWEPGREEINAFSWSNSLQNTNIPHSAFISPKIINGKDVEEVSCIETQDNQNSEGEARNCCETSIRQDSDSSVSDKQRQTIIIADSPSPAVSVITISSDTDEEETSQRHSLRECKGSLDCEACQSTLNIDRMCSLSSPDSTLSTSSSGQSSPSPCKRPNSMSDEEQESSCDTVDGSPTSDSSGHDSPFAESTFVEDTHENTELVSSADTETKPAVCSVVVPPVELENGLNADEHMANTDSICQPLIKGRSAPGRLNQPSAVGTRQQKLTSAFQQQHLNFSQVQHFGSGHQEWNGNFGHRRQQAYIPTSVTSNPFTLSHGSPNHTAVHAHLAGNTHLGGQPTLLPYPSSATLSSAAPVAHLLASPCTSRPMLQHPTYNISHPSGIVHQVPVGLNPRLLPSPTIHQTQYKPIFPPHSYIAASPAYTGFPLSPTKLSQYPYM
Sequence of Activated CDC42 kinase 1 (Q07912 whole entry, looked up): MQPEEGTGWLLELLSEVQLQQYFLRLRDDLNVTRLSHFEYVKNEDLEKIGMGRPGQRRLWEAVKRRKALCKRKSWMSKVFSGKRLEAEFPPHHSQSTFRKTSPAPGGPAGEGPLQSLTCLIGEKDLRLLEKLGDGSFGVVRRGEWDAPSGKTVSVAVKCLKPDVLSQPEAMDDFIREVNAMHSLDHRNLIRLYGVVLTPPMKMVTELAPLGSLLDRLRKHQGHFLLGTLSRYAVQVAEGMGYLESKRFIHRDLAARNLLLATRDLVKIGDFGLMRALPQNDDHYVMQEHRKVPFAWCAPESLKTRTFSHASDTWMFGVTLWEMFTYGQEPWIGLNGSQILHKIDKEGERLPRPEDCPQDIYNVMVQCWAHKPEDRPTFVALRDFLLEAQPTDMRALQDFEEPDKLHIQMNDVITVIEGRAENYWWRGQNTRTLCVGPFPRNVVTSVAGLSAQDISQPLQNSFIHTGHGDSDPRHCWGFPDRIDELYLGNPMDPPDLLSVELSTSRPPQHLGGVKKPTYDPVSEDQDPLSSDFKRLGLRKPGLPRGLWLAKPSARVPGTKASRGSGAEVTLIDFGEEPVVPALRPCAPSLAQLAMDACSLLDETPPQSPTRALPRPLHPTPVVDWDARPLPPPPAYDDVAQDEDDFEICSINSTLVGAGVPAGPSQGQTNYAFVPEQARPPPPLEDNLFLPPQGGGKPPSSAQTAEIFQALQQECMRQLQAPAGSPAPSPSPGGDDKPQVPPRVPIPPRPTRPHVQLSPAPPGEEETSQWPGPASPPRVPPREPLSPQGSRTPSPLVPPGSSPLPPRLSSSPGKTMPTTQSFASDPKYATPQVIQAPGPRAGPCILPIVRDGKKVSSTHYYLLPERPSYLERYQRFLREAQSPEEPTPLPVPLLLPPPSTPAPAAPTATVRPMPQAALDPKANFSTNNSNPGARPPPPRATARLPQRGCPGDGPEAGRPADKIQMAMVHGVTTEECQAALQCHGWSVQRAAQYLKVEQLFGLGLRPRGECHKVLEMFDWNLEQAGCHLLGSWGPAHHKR
Sequence of Mitogen-activated protein kinase 14 (Q16539 whole entry): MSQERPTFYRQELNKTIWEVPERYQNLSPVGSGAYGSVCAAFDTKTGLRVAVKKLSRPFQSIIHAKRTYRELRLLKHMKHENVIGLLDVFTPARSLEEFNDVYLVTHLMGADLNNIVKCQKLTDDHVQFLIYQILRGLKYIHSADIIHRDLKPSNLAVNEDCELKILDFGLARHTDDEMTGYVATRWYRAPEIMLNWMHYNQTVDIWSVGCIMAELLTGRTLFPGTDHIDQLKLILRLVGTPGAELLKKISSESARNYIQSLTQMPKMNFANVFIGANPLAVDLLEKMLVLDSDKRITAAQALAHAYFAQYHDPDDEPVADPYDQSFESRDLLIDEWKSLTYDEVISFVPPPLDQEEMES
Sequence of Serine/threonine-protein kinase pim-2 (Q9P1W9 whole entry, looked up): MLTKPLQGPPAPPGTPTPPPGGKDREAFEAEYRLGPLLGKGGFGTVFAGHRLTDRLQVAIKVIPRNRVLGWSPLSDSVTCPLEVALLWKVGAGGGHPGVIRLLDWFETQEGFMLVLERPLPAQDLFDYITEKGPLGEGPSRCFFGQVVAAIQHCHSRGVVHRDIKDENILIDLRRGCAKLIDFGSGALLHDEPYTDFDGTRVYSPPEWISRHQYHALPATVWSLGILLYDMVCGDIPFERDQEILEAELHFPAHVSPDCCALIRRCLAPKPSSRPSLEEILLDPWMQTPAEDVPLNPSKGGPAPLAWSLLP
Sequence of Phosphatidylinositol 4-phosphate 3-kinase C2 domain-containing subunit beta (Homo sapiens) (O00750 whole entry, the tested form may be a part): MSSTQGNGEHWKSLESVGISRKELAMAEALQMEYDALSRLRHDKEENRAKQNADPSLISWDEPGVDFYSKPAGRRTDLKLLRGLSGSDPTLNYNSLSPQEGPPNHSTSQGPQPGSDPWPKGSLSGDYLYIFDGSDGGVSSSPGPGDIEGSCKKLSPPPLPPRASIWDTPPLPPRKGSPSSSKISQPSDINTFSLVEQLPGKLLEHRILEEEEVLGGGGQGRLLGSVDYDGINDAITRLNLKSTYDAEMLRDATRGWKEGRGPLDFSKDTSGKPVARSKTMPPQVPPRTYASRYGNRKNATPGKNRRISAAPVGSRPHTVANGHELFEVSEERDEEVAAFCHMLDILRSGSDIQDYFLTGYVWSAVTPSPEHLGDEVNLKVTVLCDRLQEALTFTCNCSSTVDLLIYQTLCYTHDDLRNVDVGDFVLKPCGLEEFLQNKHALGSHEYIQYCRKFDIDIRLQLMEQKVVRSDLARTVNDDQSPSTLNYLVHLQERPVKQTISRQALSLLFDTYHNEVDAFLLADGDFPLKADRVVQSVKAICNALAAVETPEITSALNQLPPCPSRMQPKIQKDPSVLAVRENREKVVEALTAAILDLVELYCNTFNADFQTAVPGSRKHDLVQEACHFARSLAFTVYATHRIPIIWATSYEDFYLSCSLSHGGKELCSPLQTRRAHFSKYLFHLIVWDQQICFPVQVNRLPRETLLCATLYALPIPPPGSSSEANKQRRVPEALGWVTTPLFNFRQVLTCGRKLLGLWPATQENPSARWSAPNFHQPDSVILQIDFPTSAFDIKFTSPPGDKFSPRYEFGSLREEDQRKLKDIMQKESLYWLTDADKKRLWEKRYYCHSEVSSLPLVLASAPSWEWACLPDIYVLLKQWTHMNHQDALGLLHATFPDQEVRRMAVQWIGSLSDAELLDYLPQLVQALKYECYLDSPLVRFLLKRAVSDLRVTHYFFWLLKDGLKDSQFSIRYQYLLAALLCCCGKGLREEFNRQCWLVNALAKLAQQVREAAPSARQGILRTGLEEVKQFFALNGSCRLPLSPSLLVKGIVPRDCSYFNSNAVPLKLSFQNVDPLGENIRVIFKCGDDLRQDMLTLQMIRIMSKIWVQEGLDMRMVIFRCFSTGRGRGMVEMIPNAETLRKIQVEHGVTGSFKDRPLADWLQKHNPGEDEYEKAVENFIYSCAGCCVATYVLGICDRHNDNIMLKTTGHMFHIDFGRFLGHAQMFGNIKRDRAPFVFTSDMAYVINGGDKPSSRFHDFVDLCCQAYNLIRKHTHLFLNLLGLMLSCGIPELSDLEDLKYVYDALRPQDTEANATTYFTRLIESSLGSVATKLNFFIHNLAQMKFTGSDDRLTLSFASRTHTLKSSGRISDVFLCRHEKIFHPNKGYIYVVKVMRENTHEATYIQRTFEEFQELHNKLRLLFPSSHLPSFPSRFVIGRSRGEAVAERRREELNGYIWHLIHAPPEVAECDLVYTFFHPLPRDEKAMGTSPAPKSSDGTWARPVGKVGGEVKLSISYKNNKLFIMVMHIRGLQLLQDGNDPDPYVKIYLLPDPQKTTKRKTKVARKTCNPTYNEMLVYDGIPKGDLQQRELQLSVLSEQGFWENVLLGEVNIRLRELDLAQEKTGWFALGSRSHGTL
Sequence of Serine/threonine-protein kinase Chk2 (Homo sapiens) (O96017 whole entry): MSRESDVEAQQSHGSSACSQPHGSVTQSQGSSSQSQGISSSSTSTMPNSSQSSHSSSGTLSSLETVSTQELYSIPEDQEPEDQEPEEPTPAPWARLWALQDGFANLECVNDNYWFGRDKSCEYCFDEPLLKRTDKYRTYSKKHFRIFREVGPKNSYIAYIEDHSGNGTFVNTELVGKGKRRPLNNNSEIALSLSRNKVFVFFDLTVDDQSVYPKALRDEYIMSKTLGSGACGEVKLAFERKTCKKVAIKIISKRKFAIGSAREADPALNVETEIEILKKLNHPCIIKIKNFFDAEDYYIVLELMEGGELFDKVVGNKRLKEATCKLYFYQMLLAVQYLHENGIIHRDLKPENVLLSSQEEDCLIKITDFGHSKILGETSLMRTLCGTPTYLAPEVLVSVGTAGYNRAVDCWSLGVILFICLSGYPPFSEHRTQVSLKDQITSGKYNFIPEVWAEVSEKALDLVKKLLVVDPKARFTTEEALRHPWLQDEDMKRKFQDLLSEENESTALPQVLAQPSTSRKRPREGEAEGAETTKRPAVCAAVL

Take `Cn1cc(-n2cnc3c(NCc4nc5cc(Cl)c(Cl)cc5[nH]4)nc(N4CCOCC4)nc32)cn1`: the % of control in assay [1] is 3.47%; in [3], 8.02%. The compound also registered a % of inhibition in assay [2] of 64.1%. Take `C=CC(=O)Nc1ccc(C(=O)Nc2[nH]nc3c2CN(C(=O)N[C@H](CN(C)C)c2ccccc2)C3(C)C)cc1`: the % of engagement in assay [4] was -0.8%. In the case of `O=C(NOC[C@H](O)CO)c1ccc(F)c(F)c1Nc1ccc(I)cc1F`, the values for the % of control in assay [5] and in [6] were 75% and 100%, respectively. Regarding `CN(C)CCOc1ccc(-c2nc(-c3ccncc3)c(-c3ccc4c(c3)CC/C4=N\O)[nH]2)cc1`, the % of control was 88% in assay [7] and 100% in assay [8]. `Nc1cnc(N2CCc3cc(S(=O)(=O)Nc4c(F)cc(Cl)cc4F)cc(N4CCCC4=O)c32)nc1` [TP-020n] came in with a % of control in [9] of 100%. `CCN(CC)CCCCNc1ncc2cc(-c3cc(OC)cc(OC)c3)c(NC(=O)NC(C)(C)C)nc2n1` yielded a % of control in [10] of 100%. `CCc1cccc(CC)c1NC(=O)c1nn(C)c2c1CCc1cnc(Nc3ccc(C(=O)NC4CCN(C)CC4)cc3OC(F)(F)F)nc1-2` came in with an IC50 in assay [11] of more than 10 µM.

Turning to `C=CC(=O)Nc1cccc(C(=O)Nc2ccc(Nc3cc(-c4[nH]c(SC)nc4C)ccn3)cc2)c1`, the % of control was 93% in [12] (at 1 µM), 90% in [12] (at 5 µM), 100% in [13] (at 1 µM) and 95% in assay [13] (at 5 µM). For the compound `C=CC(=O)Nc1cc(-n2c(=O)ccc3cnc4ccc(-c5ccc(NS(C)(=O)=O)cc5)cc4c32)ccc1C`, the % of control in assay [14] (at 1 µM) is 85%; in [14] (at 10 µM) it was 100%; in [15], 100%. Regarding `O[C@H]1CC[C@H](Nc2ncc3nc(Nc4c(F)cc(F)cc4F)n([C@H]4CCOC4)c3n2)CC1`, the % of control in assay [16] was 100%.

As to `COCC(=O)NC/C=C/c1ccc2ncnc(Nc3ccc(Oc4ccc(C)nc4)c(C)c3)c2c1` [CP-724714], the % of control in assay [17] worked out at 55%.

These data come from ChEMBL document CHEMBL5465560, “Selectivity Literature for EUbOPEN Chemogenomic Library” (2024).
